Series [1] concerns the target T1, hCB2 (Homo sapiens, UniProt P34972). Briefly: Cerep cAMP assay. Type of series: cell-based. In general terms: cAMP levels reflect the balance of adenylyl cyclase and phosphodiesterase activity.
Series [2] addresses T2, hCB1 (Homo sapiens, UniProt P21554). Kind of series: DiscoverX PathHunter β-arrestin-2 recruitment assay. Type of series: cell-based. Particulars: hCB1 DiscoverX ß-arrestin recruitment EC50 [95% CI]. The method, then:
PathHunter cell lines (CHO-K1 lineage expressing hCB1) were expanded from freezer stocks according to standard procedures. Cells were seeded in a total volume of 20 μL into white walled, 384-well microplates and incubated at 37°C for the appropriate time prior to testing. For agonist determination, cells were incubated with sample to induce response. Intermediate dilution of sample stocks was performed to generate 5X sample in assay buffer. 5 μL of 5X sample was added to cells and incubated at 37°C or room temperature for 90 to 180 minutes. Vehicle concentration was 1%. […] Microplates were read following signal generation with a PerkinElmer EnvisionTM instrument for chemiluminescent signal detection. Compound activity was analyzed using CBIS data analysis suite (ChemInnovation, CA).
The data were analyzed in GraphPad Prism 9.1 using “dose–response-stimulation log(agonist) versus response (four parameters)” and data were presented as EC50 or pEC50 ± CIs of one independent experiment in duplicate.

For series [3], the target named is T2, hCB1. Kind of series: Cerep HTRF cAMP inhibition assay, hCB1 CHO-K1 cells. Type of series: cell-based. As to the method: The hCB1 CHO-K1 cells are suspended in HBSS buffer (Invitrogen) complemented with 20 mM HEPES (pH 7.4), then distributed in microplates at a density of 5.103 cells/well in the presence of either of the following: HBSS (basal control), the reference agonist at 30 nM (stimulated control) or the test compounds. […] Following 30 min incubation at 37°C, the cells are lysed, and the fluorescence acceptor (D2-labeled cAMP) and fluorescence donor (anti-cAMP antibody labeled with europium cryptate) are added. […] Each measurement was done in triplicate.

The target in a further series is T3, CB1 (Rattus norvegicus, UniProt P20272).
T3 construct: membrane preparations from rat brain (source of CB1); tissue Bioivt RAT00BRAINMZN; host or cells: rat brain
T3 sequence (P20272 whole entry): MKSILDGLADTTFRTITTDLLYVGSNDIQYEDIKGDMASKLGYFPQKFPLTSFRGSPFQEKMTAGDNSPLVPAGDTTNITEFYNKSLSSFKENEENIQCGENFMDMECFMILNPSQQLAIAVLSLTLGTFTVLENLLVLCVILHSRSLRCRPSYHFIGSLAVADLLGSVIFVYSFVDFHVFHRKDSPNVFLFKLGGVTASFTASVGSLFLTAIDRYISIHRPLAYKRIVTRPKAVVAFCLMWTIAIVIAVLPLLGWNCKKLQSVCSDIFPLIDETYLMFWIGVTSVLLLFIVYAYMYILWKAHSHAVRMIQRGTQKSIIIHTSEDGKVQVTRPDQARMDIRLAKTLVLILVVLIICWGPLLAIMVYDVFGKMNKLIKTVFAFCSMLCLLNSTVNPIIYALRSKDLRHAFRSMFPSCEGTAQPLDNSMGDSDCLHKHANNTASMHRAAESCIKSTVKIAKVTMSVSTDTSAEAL
Kind of series: Radioligand competition binding with [3H]-CP-55,940, rat brain membranes. To be noted: for Emax: maximal radioligand displacement, read-out: rCB1 binding Emax [SEM]; for Ki: [3H]-CP-55,940 competition, rat brain membranes. The method, then: The results were analyzed using nonlinear regression to determine the IC50 and Ki values for each ligand (Prism by GraphPad Software, Inc., San Diego, CA). The Ki values are expressed as the mean of two to three experiments each performed in triplicate.
Background: Displacement assays read how much labelled ligand stays bound in the presence of the test substance.

For series [4], the target named is T2, hCB1. Briefly: Tango β-arrestin-2 recruitment assay, HTLA cells. More on the design: expressed in transfected cells. Type of series: cell-based. As to the method:
(§1) The Tango β-arrestin-2 recruitment assays were performed as described. In brief, HTLA cells were transiently transfected with human CB1R or CB2R Tango DNA construct overnight in DMEM supplemented with 10 % FBS, 100 μg ml−1 streptomycin and 100 U ml−1 penicillin. The transfected cells were then plated into poly-L-lysine-coated 384-well white clear-bottom cell culture plates in DMEM containing 1% dialysed FBS at a density of 10,000–15,000 cells per well. After incubation for 6 h, the plates were added with drug solutions prepared in DMEM containing 1% dialysed FBS for overnight incubation. On the day of assay, medium and drug solutions were removed and 20 μl per well of BrightGlo reagent (Promega) was added. The plates were further incubated for 20 min at room temperature and counted using the Wallac TriLux Microbeta counter (PerkinElmer). The results were analysed using GraphPad Prism 9.1. Each experiment was performed in triplicate and functional […] values were determined from the mean of three independent experiments.

Series [5] deals with T1, hCB2. Kind of series: Tango β-arrestin-2 recruitment assay, HTLA cells. It counts as cell-based. More on the design: expressed in transfected cells; host or cells: HTLA (transient). The method, then: as §1
In general terms: Activated receptors often draw arrestin, which recruitment assays turn into a signal.

In another series the target is T4, CB1R (Homo sapiens, UniProt P21554, C107A/C139A/C149A/C238A/C355A/C382A/C386A/C415A/C431A/C449A/C98A/R336C).
T4 construct: N-terminal FLAG tag and C-terminal histidine tag was added to human full-length CB1; FLAG (N); histidine tag (C); made in house; host or cells: Spodoptera frugiperda Sf9 (baculovirus)
T4 sequence (P21554 whole entry C98A/C107A/C139A/C149A/C238A/R336C/C355A/C382A/C386A/C415A/C431A/C449A): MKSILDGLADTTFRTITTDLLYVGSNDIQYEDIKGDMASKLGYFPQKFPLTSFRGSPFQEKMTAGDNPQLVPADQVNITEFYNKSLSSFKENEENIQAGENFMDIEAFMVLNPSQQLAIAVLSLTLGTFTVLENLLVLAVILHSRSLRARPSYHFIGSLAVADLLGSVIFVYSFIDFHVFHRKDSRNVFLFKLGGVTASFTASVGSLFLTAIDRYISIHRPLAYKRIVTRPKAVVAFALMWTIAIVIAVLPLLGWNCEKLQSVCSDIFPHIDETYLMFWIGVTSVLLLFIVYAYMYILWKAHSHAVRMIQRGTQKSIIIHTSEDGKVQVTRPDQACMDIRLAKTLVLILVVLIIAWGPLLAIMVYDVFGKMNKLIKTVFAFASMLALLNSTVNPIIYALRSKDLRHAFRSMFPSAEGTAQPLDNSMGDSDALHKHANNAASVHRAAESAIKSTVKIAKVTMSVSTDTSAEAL
Briefly: Bimane fluorescence of TM6-labeled minimal cysteine CB1R. To be noted: 10 μM ligand; apo 459 nm. Type of series: biochemical. As to the method: A minimal cysteine version of CB1R was generated[73] where all the cysteine residues (except C256 and C264) were mutated to alanine. […] Excess label was removed using size exclusion chromatography on a Superdex 200 10/300 Increase column in 20 mM HEPES pH 7.5, 100 mM NaCl and 0.01% MNG/0.001% CHS. Bimane-labeled CB1R at […] was incubated with ligands (10 μM) for one hour at room temperature. Fluorescence data was collected at room temperature in a 150 μL cuvette with a FluorEssence v3.8 software on a Fluorolog instrument (Horiba) in photon-counting mode. Bimane fluorescence was measured by excitation at 370 nm with excitation and emission bandwidth passes of 4 nm. The emission spectra were recorded from 410 to 510 nm with 1 nm increment and 0.1 s integration time.

Another series has as its system C56BL/6 mice. Kind of series: Conditioned place preference. Particulars: mouse, in vivo. The method, then: To determine if ‘4042 was inherently rewarding or aversive we used the conditioned place paradigm as described. Briefly, mice were first habituated to the test apparatus, twice, and their preference for each chamber recorded for 30 minutes (Pretest). Two conditioning days followed in which mice received the vehicle control or the compound, and 30 minutes later restricted for 30 minutes in the preferred or non-preferred chamber, respectively. On day 5 (Test day), mice were allowed to roam freely between the 3 chambers of the apparatus and their preference for each chamber recorded for 30 minutes. To calculate the CPP score, we subtracted the time spent in each chamber of the box on the Pretest day from that of the Test day (CPP score = Test - Pretest).

The target of series [6] is T2, hCB1. Briefly: Lance Ultra cAMP accumulation assay (inhibition of forskolin-stimulated cAMP), CHO cells. Type of series: cell-based. Further details: expressed in transfected cells. The method, then:
The inhibition of forskolin-stimulated cAMP accumulation assays was carried out using PerkinElmer’s Lance Ultra cAMP kit following the manufacturer’s protocol. In brief, CHO cells stably expressing human CB1R were harvested by incubation with Versene (ThermoFisher Scientific, Waltham, MA) for 10 min, washed once with Hank’s Balanced Salt Solution, and resuspended in stimulation buffer at ~200 cells/μL density. The ligands at eight different concentrations (0.001–10,000 nM) in stimulation buffer (5 μL) containing forskolin (2 μM final concentration) were added to a 384-well plate followed by the cell suspension (5 μL; ~1000 cells/well). The plate was incubated for 30 min at room temperature. Eu-cAMP tracer (5 μL) and Ulight-anti-cAMP (5 μL) working solutions were then added to each well, and the plate was incubated at room temperature for an additional 60 min. Results were measured on a Perkin-Elmer EnVision plate reader. The EC50 values were determined by nonlinear regression analysis using Prism software (GraphPad Software, Inc., San Diego, CA) and are expressed as the mean of three experiments, each performed in triplicate.

For series [7], the target named is T2, hCB1. Briefly: bioSens-All ebBRET effector biosensor signaling profiling, HEK293. Type of series: cell-based. Further details: host or cells: HEK293 (HEK293SL clone), transient. As to the method: ebBRET-based effector membrane translocation biosensor assays were conducted at Domain Therapeutics NA Inc. (Montreal, QC, Canada) as previously described. […] HEK293 cells were maintained in Dulbecco’s Modified Eagle Medium (DMEM) (Wisent) supplemented with 1% penicillin- streptomycin (Wisent) and 10% (or 2 % for transfection) fetal bovine serum (Wisent) at 37°C with 5% CO2. All biosensor-coding plasmids and related information are the property of Domain Therapeutics NA Inc. The total amount of transfected DNA was adjusted and kept constant at 1 μg per mL of cell culture to be transfected using salmon sperm DNA (Invitrogen) as ‘carrier’ DNA, PEI (polyethylenimine 25 kDa linear, PolyScience) and DNA (3:1 ml PEI:mg DNA ratio) were first diluted separately in 150 mM NaCl then mixed and incubated for at least 20 minutes at room temperature to allow for the formation of DNA/PEI complexes. During the incubation, HEK293 cells were detached, counted, and re-suspended in maintenance medium to a 350,000 cells per mL density. At the end of the incubation period, the DNA/PEI mixture was added to the cells. Cells were finally distributed in 96-well plates (White Opaque 96-well /Microplates, Greiner) at a density of 35,000 cells per well. Forty-eight hours post-transfection, medium was aspirated and replaced with 100 μl of Hank’s Balanced Salt Solution buffer (HBSS) (Wisent) per well using 450-Select TS Biotek plate washer. After 60 min incubation in this medium, 10 μL of 10 μM e-Coelenterazine Prolume Purple (Methoxy e-CTZ) (Nanolight) was added to each well for a final concentration of 1 μM immediately followed by addition of increasing concentrations of the test compounds to each well using the HP D300 digital dispenser (Tecan). All compounds were assayed at 22 concentrations with each biosensor after a 10-minute room temperature incubation period. […] All BRET ratios were standardized using the universal BRET (uBRET) equation: uBRET=BRETratio-A/B-A×10,000 where A is the BRET ratio obtained from transfection of negative control and B is the BRET ratio obtained from transfection of positive control. […] The data were analyzed using the four-parameter logistic non-linear regression model in GraphPad Prism 9.1 and data were presented as means ± CIs of 1–4 independent experiments.
The SEM was calculated for the logEmax/EC50 ratios using the following equation: SEM=σ/n where σ is the standard deviation, and n is the number of experiments.

The record followed here is publication doi:10.1101/2023.02.27.530254, “Large library docking for cannabinoid-1 receptor agonists with reduced side effects” (bioRxiv, 2024).

The structures appear in SMILES notation. Values joined by “and” are separate entries in the source; they are usually repeats but may differ in a detail not shown here. Equal entries are not always repeated.

As usually defined, the EC50 is the concentration that produces a half-maximal response. Read a low EC50 as an effect from little substance. Broadly, the Emax is the greatest response seen or fitted, relative to the assay's reference. As a reminder, the Ki is the dissociation constant of the complex between target and ligand, obtained from inhibition or displacement. The low end stands for a stronger hold on the target, the high end for a looser hold on the target.

T1 sequence (P34972 whole entry): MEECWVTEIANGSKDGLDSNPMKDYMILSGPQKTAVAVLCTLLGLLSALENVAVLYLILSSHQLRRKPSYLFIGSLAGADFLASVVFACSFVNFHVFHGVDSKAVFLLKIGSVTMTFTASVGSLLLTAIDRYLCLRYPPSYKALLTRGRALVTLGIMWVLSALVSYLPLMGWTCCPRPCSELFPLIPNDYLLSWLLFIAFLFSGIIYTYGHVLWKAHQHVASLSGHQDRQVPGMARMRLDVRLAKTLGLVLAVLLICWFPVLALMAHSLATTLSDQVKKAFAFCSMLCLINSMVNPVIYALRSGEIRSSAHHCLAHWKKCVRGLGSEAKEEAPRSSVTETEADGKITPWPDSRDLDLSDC
T2 sequence (P21554 whole entry): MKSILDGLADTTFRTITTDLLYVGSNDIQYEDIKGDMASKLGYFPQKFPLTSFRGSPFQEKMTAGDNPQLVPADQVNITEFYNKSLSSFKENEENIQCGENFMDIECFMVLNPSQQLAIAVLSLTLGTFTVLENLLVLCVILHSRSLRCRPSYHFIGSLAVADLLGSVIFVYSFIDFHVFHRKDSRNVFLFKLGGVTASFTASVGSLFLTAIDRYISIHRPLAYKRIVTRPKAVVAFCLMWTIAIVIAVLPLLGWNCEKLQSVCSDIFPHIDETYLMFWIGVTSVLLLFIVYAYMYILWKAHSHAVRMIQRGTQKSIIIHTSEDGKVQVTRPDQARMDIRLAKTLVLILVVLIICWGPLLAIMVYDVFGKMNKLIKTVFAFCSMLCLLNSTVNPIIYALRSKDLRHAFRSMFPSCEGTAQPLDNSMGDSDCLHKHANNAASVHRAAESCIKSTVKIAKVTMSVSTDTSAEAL

As to `Cc1cc(C(=O)N2CC3(CCC3)C2C2CCCO2)nn1-c1cccc(C(F)(F)F)c1` (stereo not shown) [‘3737], the EC50 at hCB2 [1] is 4.3 nM; on hCB1 [2], above 10000 nM; at hCB1 [3] it was 326 nM; at hCB1 [4], above 10000 nM; at hCB2 [5], 1500 nM. Besides, the Emax on hCB2 [1] (read-out: hCB2 Cerep cAMP Emax [95% CI]) stood at 45%; on hCB1 [3] (CHO-K1, read-out: hCB1 Cerep cAMP Emax [95% CI]), 99%; on CB1, 112%; on hCB2 [5] (HTLA, read-out: hCB2 Tango ß-arrestin recruitment Emax [95% CI]), 9%. The Ki on CB1 (rCB1 binding Ki [95% CI]) came to 173 nM.
Take `COC(=O)[C@@H](NC(=O)c1nn(Cc2ccc(F)cc2)c2ccccc12)C(C)(C)C` [MDMB-fubinaca, reference compound]: the “bimane spectrum λmax” value at CB1R turned out to be 465 nm.
As to `CN1CC[C@]23c4c5ccc(O)c4O[C@H]2[C@@H](O)C=C[C@H]3[C@H]1C5` [morphine, reference compound], in the series on C56BL/6 mice, the conditioned place preference result is on record as “significantly increased their preference”.
Consider `COC(=O)[C@](C)(NC(=O)c1cc(C)n(-c2cccc(C(F)(F)F)c2)n1)c1cccs1` [‘8690], for which the EC50 at hCB1 [6] is 473 nM; at hCB1 [7] (hCB1 Gi1 EC50 [95% CI], Gi1 sensor), 19.1 nM; on hCB1 [7] (hCB1 GoB EC50 [95% CI], GoB sensor) it was 18 nM; on hCB1 [7] (hCB1 GoB pEC50 [95% CI], GoB sensor), 15.8 nM; at hCB1 [7] (hCB1 Gz EC50 [95% CI], Gz sensor), 33 nM. Moreover, the Emax on hCB1 [6] (CHO, read-out: hCB1 Lance Ultra cAMP Emax [95% CI]) was found to be 53%; at CB1 it was 100%; on hCB1 [7] (HEK293, read-out: hCB1 Gi1 Emax [95% CI]), 82%; on hCB1 [7] (HEK293, read-out: hCB1 GoB Emax [95% CI]), 83%; at hCB1 [7] (HEK293, read-out: hCB1 Gz Emax [95% CI]) it was 98%. The inhibition constant Ki was 90 nM and 90.2 nM at CB1 (rCB1 binding Ki [95% CI]); 79.4 nM on CB1 (rCB1 binding pKi [95% CI]). At CB1R, the “bimane spectrum λmax” value worked out at 459 nm.
